Experimental data: patent US20060069132A1, “Azolecarboxamide herbicides” (priority 2004, published 2006)

What was measured:
bermudagrass = test: Test C pre-/postemergence herbicide test; format: in vivo, Cynodon dactylon; conditions: for Plant response rating, Bermudagrass: preemergence
Outline: (§1)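 Seeds were planted and sprayed preemergence with test chemicals in a non-phytotoxic solvent mixture containing surfactant; postemergence treatments went onto plants 2 to 18 cm tall (1- to 4-leaf stage). After 12 to 14 days in a greenhouse, injury was rated visually against untreated controls on a 0–100 scale.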

large crabgrass = test: Test C pre-/postemergence herbicide test; format: in vivo, Digitaria sanguinalis; conditions: preemergence
Outline: as §1

soybean = test: Test C pre-/postemergence herbicide test; format: in vivo, Glycine max; conditions: preemergence
Outline: as §1

velvetleaf [1] = test: Test B pre-/postemergence herbicide test; format: in vivo, Abutilon theophrasti; conditions: for Velvetleaf plant response rating: postemergence, scale 0 (no effect) to 100 (complete control)
Outline: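 Greenhouse pot assay with simultaneous preemergence (treated seed) and postemergence (2–18 cm seedlings) applications of surfactant-containing, non-phytotoxic solvent formulations. Response scored visually 13–15 days later on a 0–100 scale, 100 meaning complete control.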

ducksalad = test: Test C flooded paddy test; format: in vivo, Heteranthera limosa
kochia = test: Test C pre-/postemergence herbicide test; format: in vivo, Kochia scoparia; conditions: preemergence
Outline: as §1

velvetleaf [2] = test: Test A pre-/postemergence herbicide test; format: in vivo, Abutilon theophrasti
Outline: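 Seeds sown in sandy loam received a preemergence directed soil spray of compound in non-phytotoxic solvent with surfactant; postemergence plants (2–10 cm, one- to two-leaf stage) were sprayed to runoff at the same time. After ~10 days in greenhouse, injury was rated visually versus untreated controls (0 = no effect, 100 = complete control).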

cocklebur = test: Test C pre-/postemergence herbicide test; format: in vivo, Xanthium strumarium; conditions: for Plant response rating, Cocklebur: preemergence
Outline: as §1

yellow nutsedge = test: Test C pre-/postemergence herbicide test; format: in vivo, Cyperus esculentus; conditions: preemergence
Outline: as §1

[3] = 125 g ai/ha, scale 0 (no effect) to 100 (complete control), visual, 12 to 14 days
[4] = Preemergence, 500 g ai/ha, scale 0 to 100, 0 no effect, 100 complete control
[5] = 500 g ai/ha, scale 0 to 100 (0 no effect, 100 complete control), visual, 12 to 14 days

CCc1nn(C(C)(C)C)cc1C(=O)Nc1cc(C(=O)N(CC)CC)ccc1F [Compound 223]
Plant response rating, Bermudagrass (bermudagrass; 62 g ai/ha, scale 0 to 100, 0 no effect, 100 complete control): 80
Plant response rating, Bermudagrass (bermudagrass; [3]): 80
Plant response rating, Bermudagrass (bermudagrass; 250 g ai/ha, scale 0-100): 100
Bermudagrass plant response rating (bermudagrass; [4]): 100
Plant response rating, Crabgrass, Large (large crabgrass; 62 g ai/ha, scale 0 to 100): 100
Plant response rating, Crabgrass, Large (large crabgrass; [3]): 100
Plant response rating, Crabgrass, Large (large crabgrass; 250 g ai/ha, scale 0-100): 100
Plant response rating, Crabgrass, Large (large crabgrass; [5]): 100
Plant response rating, Soybean (soybean; 62 g ai/ha, scale 0 to 100): 0
Plant response rating, Soybean (soybean; 250 g ai/ha, scale 0-100): 80
Plant response rating, Soybean (soybean; [5]): 90
Velvetleaf plant response rating (0 to 100 scale) (velvetleaf [1]; 125 g ai/ha, 0 = no effect, 100 = complete control, preemergence): 30
Plant response rating, Velvetleaf (velvetleaf [1]; 500 g ai/ha, visual rating, 0 = no effect, 100 = complete control, preemergence): 100
Velvetleaf plant response rating (velvetleaf [1]; 125 g ai/ha, visual rating): 20
Velvetleaf plant response rating (velvetleaf [1]; 500 g ai/ha, visual rating): 20
Ducksalad plant response rating (ducksalad; 62 g ai/ha, scale 0 to 100 (0 no effect, 100 complete control)): 0
Ducksalad plant response rating (ducksalad; 125 g ai/ha, scale 0 to 100 (0 no effect, 100 complete control)): 0
Ducksalad plant response rating (ducksalad; 250 g ai/ha, scale of 0 to 100, 0 is no effect, 100 is complete control): 25
Plant response rating, Ducksalad (ducksalad; 500 g ai/ha, visual rating after 12 to 14 days, scale 0 to 100 (0 no effect, 100 complete control)): 55
Plant response rating, Kochia (kochia; 62 g ai/ha, scale 0 to 100): 85
Plant response rating, Kochia (kochia; [3]): 90
Plant response rating, Kochia (kochia; 250 g ai/ha, scale 0-100): 100
Plant response rating, Kochia (kochia; [5]): 100
Velvetleaf plant response rating (velvetleaf [2]; Postemergence, 500 g ai/ha, 0 to 100 scale, 0 no effect, 100 complete control): 40
Plant response rating, Velvetleaf (velvetleaf [2]; Postemergence, 2000 g ai/ha, 0 to 100 scale, 0 no effect, 100 complete control): 35
Velvetleaf plant response rating (velvetleaf [2]; Preemergence, 2000 g ai/ha, visual rating, 0 to 100 scale (0 no effect, 100 complete control)): 85
Velvetleaf plant response rating (velvetleaf [2]; preemergence, 500 g ai/ha, visual injury, 0 to 100 scale (0 no effect, 100 complete control)): 55
Plant response rating, Cocklebur (cocklebur; 62 g ai/ha, scale 0 to 100): 0
Plant response rating, Cocklebur (cocklebur; [3]): 0
Plant response rating, Cocklebur (cocklebur; 250 g ai/ha, scale 0-100): 0
Cocklebur plant response rating (cocklebur; [4]): 0
Plant response rating, Nutsedge, Yellow (yellow nutsedge; 62 g ai/ha, scale 0 to 100): 0
Plant response rating, Nutsedge, Yellow (yellow nutsedge; [3]): 0
Plant response rating, Nutsedge, Yellow (yellow nutsedge; 250 g ai/ha, scale 0-100): 0
Plant response rating, Nutsedge, Yellow (yellow nutsedge; [5]): 0
